According to ChEMBL document CHEMBL1201862, “PubChem BioAssay data set” (2004):
Where a name gives a salt, the structure may show the parent alone. Activity calls are given as the source filed them.

Legend:
[1] = molecular target: UDP-galactopyranose mutase (Mycobacterium tuberculosis, UniProt P9WIQ1); assay: Inhibitors of Mycobacterium tuberculosis UDP-galactopyranose mutase (UGM) enzyme Measured in Biochemical System Using Plate Reader - 2105-02_Inhibitor_Dose_CherryPick_Activity. [Related pubchem assays (depositor defined):AID504439]
Chain of UDP-galactopyranose mutase (P9WIQ1 whole entry): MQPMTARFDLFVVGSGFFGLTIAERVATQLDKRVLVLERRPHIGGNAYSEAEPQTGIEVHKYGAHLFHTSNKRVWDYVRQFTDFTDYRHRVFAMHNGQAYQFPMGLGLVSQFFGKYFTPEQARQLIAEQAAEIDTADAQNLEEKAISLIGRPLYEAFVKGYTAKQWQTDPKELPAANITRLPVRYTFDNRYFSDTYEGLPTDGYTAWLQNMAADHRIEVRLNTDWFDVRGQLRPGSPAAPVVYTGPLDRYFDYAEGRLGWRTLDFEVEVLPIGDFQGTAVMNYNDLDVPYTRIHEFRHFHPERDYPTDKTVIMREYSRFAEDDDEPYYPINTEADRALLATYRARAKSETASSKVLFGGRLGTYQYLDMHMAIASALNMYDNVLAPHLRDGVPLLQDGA

[2] = molecular target: ORF 73 (Human herpesvirus 8, UniProt O40947); assay: inhibitors of C-LANA binding to LBS DNA, dose response, biochemical, fluorescence polarization, cherry-picked samples (AID 504725); set-up: species or system Human gammaherpesvirus 8;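 further: fluorescence polarization of a labeled DNA duplex reporting LANA DNA binding; potency is for inhibitors that block LANA binding to the DNA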
Chain of ORF 73 (O40947 whole entry): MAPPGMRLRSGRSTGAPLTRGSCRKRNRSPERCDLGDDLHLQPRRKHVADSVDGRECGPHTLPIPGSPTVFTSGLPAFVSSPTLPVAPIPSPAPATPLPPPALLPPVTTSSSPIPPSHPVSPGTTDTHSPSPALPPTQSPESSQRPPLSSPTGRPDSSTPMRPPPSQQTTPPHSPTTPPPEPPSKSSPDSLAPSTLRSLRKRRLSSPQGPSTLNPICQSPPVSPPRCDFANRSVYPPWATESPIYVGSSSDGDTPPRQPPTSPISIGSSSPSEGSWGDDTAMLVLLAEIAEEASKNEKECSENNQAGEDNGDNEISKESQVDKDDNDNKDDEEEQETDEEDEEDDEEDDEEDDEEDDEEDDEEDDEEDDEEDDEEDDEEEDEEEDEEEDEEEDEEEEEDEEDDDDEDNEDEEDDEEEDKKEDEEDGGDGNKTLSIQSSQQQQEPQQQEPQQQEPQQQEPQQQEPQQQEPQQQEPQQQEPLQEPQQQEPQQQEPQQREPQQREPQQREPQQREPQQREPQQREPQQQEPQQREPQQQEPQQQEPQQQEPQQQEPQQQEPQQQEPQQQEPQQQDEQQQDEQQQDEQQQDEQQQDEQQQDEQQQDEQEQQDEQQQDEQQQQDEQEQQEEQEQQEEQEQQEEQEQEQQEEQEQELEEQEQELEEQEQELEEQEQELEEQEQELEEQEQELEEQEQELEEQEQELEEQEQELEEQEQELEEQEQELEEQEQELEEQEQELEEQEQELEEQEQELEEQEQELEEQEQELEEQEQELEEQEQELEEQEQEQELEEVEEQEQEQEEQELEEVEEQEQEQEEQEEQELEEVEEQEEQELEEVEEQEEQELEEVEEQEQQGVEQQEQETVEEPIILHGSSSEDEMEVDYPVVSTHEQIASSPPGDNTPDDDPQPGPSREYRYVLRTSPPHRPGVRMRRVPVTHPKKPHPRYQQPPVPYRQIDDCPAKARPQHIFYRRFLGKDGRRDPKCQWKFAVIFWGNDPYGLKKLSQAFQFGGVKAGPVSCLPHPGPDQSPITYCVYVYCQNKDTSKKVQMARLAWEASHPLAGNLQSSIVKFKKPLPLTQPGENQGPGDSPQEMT

[3] = system: P388/ADR; assay: cells; assay type: functional; conditions: Mus musculus
[4] = system: P388; assay: cells; assay type: functional; conditions: Mus musculus
[5] = molecular target: T1, Insulin-degrading enzyme (Homo sapiens, UniProt P14735); assay: activators of recombinant IDE enzyme, dose response, counter-screen for IDE activator project, biochemical, fluorescence polarization (AID 588681)
T1 sequence (P14735 whole entry): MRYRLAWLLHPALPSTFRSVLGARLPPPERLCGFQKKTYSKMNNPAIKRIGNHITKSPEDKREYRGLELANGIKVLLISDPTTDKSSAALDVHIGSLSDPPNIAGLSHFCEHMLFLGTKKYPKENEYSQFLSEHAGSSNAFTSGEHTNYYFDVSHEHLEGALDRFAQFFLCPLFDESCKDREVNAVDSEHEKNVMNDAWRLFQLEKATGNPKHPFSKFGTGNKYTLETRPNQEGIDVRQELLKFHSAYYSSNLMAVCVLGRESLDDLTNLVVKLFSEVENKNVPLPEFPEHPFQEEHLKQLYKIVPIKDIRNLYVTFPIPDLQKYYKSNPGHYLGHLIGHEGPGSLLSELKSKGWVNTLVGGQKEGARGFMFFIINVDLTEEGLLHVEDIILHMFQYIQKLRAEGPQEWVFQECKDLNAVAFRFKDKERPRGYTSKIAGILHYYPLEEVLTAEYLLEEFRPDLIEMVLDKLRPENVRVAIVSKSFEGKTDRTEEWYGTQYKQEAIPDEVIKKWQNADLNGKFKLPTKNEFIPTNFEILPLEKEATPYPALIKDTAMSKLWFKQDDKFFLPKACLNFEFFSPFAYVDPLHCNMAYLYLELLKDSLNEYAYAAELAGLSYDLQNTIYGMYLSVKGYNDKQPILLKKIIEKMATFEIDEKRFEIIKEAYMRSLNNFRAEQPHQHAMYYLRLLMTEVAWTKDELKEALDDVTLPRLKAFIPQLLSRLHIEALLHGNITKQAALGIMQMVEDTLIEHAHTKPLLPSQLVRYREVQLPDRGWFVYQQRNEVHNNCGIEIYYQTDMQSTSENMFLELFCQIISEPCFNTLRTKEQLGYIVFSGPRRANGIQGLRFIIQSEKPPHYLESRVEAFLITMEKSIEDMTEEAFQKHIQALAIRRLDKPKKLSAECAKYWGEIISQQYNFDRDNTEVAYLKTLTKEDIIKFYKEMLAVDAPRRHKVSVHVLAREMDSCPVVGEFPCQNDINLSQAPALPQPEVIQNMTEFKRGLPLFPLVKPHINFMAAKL

[6] = HeLa 4N DNA content increase, dose response, cell-based, IC50 (AID 1117351); assay type: functional
[7] = Concentration-dependent survival of SW480 colon cancer line, luminescence detection with CellTiter-Glo, half-maximal inhibitory concentration (AID 1117338); assay type: functional
[8] = system: HEK293; assay: optical interference in Abeta FP readout, dose response, artefact control for IDE activator project, biochemical, fluorescence polarization (AID 588442); assay type: functional, cell-based; conditions: Homo sapiens
[9] = molecular target: Keap1/Nrf2 (Homo sapiens, UniProt Q14145); assay: Keap1-Nrf2 protein-protein interaction inhibitors, dose response, biochemical, fluorescence polarization, cherry-picked samples (AID 588683)
Chain of Keap1/Nrf2 (Q16236 whole entry): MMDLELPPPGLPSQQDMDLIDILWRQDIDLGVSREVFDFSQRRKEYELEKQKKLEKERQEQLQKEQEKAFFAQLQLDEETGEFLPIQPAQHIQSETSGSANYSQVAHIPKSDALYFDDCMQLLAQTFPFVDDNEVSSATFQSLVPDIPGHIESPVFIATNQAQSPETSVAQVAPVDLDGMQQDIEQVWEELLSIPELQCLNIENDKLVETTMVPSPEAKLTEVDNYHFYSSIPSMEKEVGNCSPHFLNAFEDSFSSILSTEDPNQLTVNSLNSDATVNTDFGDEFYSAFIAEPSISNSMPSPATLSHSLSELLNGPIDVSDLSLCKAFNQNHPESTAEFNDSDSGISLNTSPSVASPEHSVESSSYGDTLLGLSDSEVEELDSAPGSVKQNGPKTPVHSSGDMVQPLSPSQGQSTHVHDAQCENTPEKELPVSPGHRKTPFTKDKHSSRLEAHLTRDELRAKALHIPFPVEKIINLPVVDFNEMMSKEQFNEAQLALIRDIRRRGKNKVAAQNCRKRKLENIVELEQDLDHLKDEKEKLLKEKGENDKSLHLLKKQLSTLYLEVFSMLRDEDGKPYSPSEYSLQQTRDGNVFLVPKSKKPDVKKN
Chain of Keap1/Nrf2 (Q14145 whole entry): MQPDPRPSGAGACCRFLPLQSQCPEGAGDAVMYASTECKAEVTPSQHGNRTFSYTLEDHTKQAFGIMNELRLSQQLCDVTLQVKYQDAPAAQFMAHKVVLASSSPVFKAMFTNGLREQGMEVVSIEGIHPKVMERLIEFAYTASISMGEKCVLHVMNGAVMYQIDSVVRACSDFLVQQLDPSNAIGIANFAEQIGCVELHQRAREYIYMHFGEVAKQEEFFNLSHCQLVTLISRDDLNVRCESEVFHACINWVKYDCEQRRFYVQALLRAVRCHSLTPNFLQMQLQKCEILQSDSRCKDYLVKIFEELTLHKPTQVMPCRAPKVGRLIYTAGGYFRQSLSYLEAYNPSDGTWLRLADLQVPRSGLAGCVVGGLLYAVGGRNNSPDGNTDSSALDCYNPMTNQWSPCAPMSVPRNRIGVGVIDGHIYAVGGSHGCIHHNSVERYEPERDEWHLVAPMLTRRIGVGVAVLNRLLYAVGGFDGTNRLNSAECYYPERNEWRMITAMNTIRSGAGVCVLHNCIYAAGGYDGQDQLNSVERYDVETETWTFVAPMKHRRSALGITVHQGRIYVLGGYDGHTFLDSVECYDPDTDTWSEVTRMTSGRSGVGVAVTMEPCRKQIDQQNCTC

[10] = RKO cell viability reduction, dose response, CellTiter-Glo luminescence (AID 1117322); assay type: functional
[11] = molecular target: T1, Insulin-degrading enzyme; assay: activators of endogenous IDE in HEK cells, dose response, cell-based, fluorescence polarization (AID 588439); assay type: functional
[12] = HCT116 cell viability decrease, GSK3B pretreatment – CellTiter-Glo, IC50, dose response (AID 1117339); assay type: functional; conditions: HCT-116
[13] = system: BJ; assay: cells; assay type: functional, cell-based; conditions: Homo sapiens
[14] = HeLa 2N DNA content increase, dose response, cell-based, IC50 (AID 1117349); assay type: functional
[15] = cytotoxicity toward HCT116 cells – cell-based, CellTiter-Glo luminescence, IC50, dose response (AID 1117332); assay type: functional; conditions: HCT-116
[16] = cytotoxicity toward DRD oncogenic fibroblasts, dose response, cell-based, non-viral oncogenic, luminescence (AID 1934); assay type: functional; conditions: Homo sapiens
[17] = system: BJ; assay: cytotoxicity toward BJ-TERT-LT-ST fibroblasts, dose response, cell-based, RAS-independent, luminescence (AID 1935); assay type: functional; conditions: Homo sapiens;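 further: BJ fibroblasts immortalized with TERT plus LT and ST oncogenes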
[18] = system: SN12K1; assay: cells; assay type: functional; conditions: Homo sapiens
[19] = molecular target: Paired box protein Pax-8 (Homo sapiens, UniProt Q06710); assay: inhibitors of PAX8-driven TPO luciferase reporter, dose response, RMG-I cells, cherry-pick (AID 687027); assay type: functional, cell-based;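 further: luciferase reporter driven by Pax8 target thyroperoxidase promoter measured by SteadyGlo luminescence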
Chain of Paired box protein Pax-8 (Q06710 whole entry): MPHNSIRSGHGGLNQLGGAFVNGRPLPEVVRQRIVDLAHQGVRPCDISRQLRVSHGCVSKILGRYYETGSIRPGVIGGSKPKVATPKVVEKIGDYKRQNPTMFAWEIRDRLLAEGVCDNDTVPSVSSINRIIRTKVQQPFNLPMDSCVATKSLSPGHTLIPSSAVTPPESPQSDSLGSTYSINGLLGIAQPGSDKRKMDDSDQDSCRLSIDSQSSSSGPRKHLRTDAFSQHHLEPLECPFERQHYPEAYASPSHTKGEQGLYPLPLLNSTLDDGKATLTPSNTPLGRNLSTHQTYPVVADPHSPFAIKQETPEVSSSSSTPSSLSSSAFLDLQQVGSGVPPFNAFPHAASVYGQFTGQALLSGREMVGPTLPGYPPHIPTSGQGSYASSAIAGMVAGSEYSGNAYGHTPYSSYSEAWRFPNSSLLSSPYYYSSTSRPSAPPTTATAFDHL

[20] = system: HEK293; assay: HEK cell cytotoxicity by LDH release, dose response, cytotoxicity control for IDE activator project, fluorescence, HEK cells (AID 588440); assay type: functional, cell-based; conditions: Homo sapiens;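 further: cytotoxicity by LDH release measuring loss of membrane integrity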
[21] = cytotoxicity in HEK-293T cells, dose response, cytotoxicity control for TCR NF-kB inhibitor project, luminescence, T-cell screen hits (AID 489026); assay type: functional, cell-based;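 further: cells exposed to compound about 14 hours before the viability readout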
[22] = SNU-C1 cell viability reduction, dose response, CellTiter-Glo luminescence (AID 1117323); assay type: functional, cell-based
[23] = system: BJ; assay: cytotoxicity toward Ras-transformed BJeLR fibroblasts, dose response, cell-based, alamar blue fluorescence, cherrypicked samples (AID 2631); assay type: functional; conditions: Homo sapiens;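 further: confirmatory dose-response assay in RAS-dependent BJ fibroblasts engineered with TERT, LT and ST, with cytotoxicity read by fluorescence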
[24] = cytotoxicity toward HT-29 cells – cell-based, CellTiter-Glo luminescence, IC50, dose response (AID 1117330); assay type: functional
[25] = system: BJ; assay: cytotoxicity toward BJ-TERT fibroblasts, dose response, cell-based, RAS-independent, luminescence (AID 1933); assay type: functional; conditions: Homo sapiens
[26] = system: HeLa; assay: HeLa cell cytotoxicity, dose response, cytotoxicity control, 24 h, cherry-picked samples (AID 504726); assay type: functional, cell-based; conditions: Homo sapiens;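 further: potency for cytotoxicity as loss of luminescence signal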
[27] = CellTiter-Glo luminescent dose response of DLD-1 viability loss (AID 1117352); assay type: functional
[28] = molecular target: Galanin receptor type 2 (Homo sapiens, UniProt O43603); assay: Dose Response cell-based high-throughput screening assay to identify antagonists of galanin receptor 2 (GALR2). [Related pubchem assays: 828, 866 ]; assay type: functional
Chain of Galanin receptor type 2 (O43603 whole entry): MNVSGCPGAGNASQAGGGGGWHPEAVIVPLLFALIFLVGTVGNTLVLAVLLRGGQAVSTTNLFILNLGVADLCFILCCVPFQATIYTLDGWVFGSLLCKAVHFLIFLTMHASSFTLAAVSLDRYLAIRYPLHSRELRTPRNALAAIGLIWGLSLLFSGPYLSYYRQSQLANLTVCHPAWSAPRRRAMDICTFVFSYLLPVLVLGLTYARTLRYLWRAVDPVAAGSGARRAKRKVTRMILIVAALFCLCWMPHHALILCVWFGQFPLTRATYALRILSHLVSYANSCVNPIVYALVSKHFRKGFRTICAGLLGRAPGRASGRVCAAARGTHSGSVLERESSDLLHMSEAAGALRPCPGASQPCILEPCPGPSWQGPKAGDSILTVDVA

[29] = Shn3 3'UTR reporter inhibitors, dose response, cell-based, Clone20 osteoblasts, firefly luciferase, cherry-picked (AID 624132); assay type: functional;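 further: firefly luciferase luminescence from reporter carrying the Shn3 3'UTR in osteoblasts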
[30] = HepG2 cell cytotoxicity, dose response, cytotoxicity control for Shn3 inhibitor project, CellTiter-Glo, cherry-picked (AID 624134); assay type: functional, cell-based
[31] = cytotoxicity in HEK-293T NF-kB-Luc cells, dose response, cytotoxicity control for B/T-cell NF-kB inhibitor project, cell-based, uHTS hits (AID 489019); assay type: functional;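 further: IC50 reflects cytotoxicity as loss of cell viability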
[32] = molecular target: Galanin receptor type 3 (Homo sapiens, UniProt O60755); assay: Fluorescence-based cell-based primary high throughput dose response assay to identify antagonists of the Galanin Receptor 3 (GalR3).; assay type: functional
Chain of Galanin receptor type 3 (O60755 whole entry): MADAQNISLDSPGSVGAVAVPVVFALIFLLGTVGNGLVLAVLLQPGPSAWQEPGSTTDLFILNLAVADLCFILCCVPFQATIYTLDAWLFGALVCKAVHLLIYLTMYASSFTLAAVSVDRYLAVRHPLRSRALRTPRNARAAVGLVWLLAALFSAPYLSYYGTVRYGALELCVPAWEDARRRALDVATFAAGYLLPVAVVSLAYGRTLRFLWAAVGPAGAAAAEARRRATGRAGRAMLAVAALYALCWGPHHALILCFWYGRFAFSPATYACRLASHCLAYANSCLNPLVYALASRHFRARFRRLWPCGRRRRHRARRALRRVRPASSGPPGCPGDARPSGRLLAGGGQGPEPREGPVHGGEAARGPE

[33] = cells; assay type: functional, cell-based; conditions: HEK-CNG
[34] = system: INS1; assay: beta cell apoptosis inhibitors, cytokine rescue, dose response, luminescence, retest (AID 449756); assay type: functional, cell-based; conditions: Rattus norvegicus;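 further: cell death triggered by IL-1 beta plus TNF-alpha plus IFN-gamma mixture; protective hits raise ATP signal compared with cytokine alone wells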
[35] = control 3'UTR Renilla luciferase suppression, dose response, counter-screen for Shn3 inhibitor project, cell-based, Clone20-Shn3RL, cherry-picked (AID 624133); assay type: functional
[36] = system: Jurkat; assay: antigen receptor-induced NF-kB inhibitors, dose response, Jurkat, luciferase reporter, luminescence, B- and T-cell (AID 489004); assay type: functional, cell-based; conditions: Homo sapiens;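 further: NF-kB luciferase reporter Jurkat cells stimulated with PMA plus ionomycin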

## CC[C@@]1(O)C(=O)OCc2c1cc1n(c2=O)Cc2cc3c(CN(C)C)c(O)ccc3nc2-1 [TOPOTECAN HYDROCHLORIDE]
[1]
  AC50: 6.86 µM (active)
[2]
  AC50: 2.15 µM (active)
[3]
  GI50: 0.136 µM (active)
[4]
  GI50: 0.029 µM (active)
[5]
  EC50: > 54.7 µM (inactive)
[6]
  IC50: > 10 µM (inactive)
[7]
  IC50: 0.233 µM (active)
[8]
  EC50: > 54.7 µM (inactive)
[9]
  AC50: 3.7 µM (active)
[10]
  IC50: 0.0342 µM (active)
[11]
  EC50: > 54.7 µM (inactive)
[12]
  IC50: 0.00144 µM (active)
[13]
  EC50: 0.246 µM (active)
[14]
  IC50: 0.0136 µM (active)
[15]
  IC50: 0.0341 µM (active)
[16]
  EC50: 0.549 µM (active)
[17]
  EC50: 0.159 µM (active)
[18]
  GI50: 0.0267 µM (active)
[19]
  AC50: < 0.26 µM (active)
[20]
  IC50: > 89.2 µM (inactive)
[21]
  IC50: > 80 µM (inactive)
[22]
  IC50: 0.301 µM (active)
[23]
  EC50: 0.0198 µM (active)
[24]
  IC50: 0.0246 µM (active)
[25]
  EC50: 11.3 µM (active)
[26]
  AC50: 17.1 µM (active)
[27]
  IC50: 0.177 µM (active)

## COc1ccc(CCNc2c(C)c(C)nc3ncnn23)cc1
[28]
  IC50: > 42 µM (not active)
[29]
  AC50: 0.565 µM (active)
[30]
  AC50: 25.6 µM (active)
[31]
  IC50: > 80 µM (inactive)
[32]
  IC50: 1.31 µM (active)
[33]
  EC50: > 29.9 µM (inactive)
[34]
  AC50: 2.57 µM (active)
[35]
  AC50: < 0.26 µM (active)
[36]
  IC50: > 80 µM (inactive)
